The text below walks through data of the NIST ThermoML archive (doi:10.1021/acs.jced.8b00552).

For data set [1] the following is noted: Liquid, Ebulliometric method (Recirculating still).
Data set [2] is described as follows: refractive index (Na D-line) (dimensionless). The following applies: 293.15 K; 101.33 kPa; Liquid; Standard Abbe refractometry.

What is called vapor or sublimation pressure is the equilibrium pressure above the liquid or solid. In general, refractive index refers to the speed of light in vacuum divided by its phase velocity in the sample.

Numbers after ± are expanded uncertainties.

With `CC(C)CO` [2-methyl-1-propanol], the figures for the “vapor or sublimation pressure” value in data set [1] (332.65 K), in data set [1] (342.63 K) and in data set [1] (349.06 K) were 12.17 ± 0.63 kPa, 20.07 ± 0.63 kPa and 26.53 ± 0.64 kPa, respectively. The refractive index in data set [2] is on record as 1.3957 ± 0.002.
As to `CCC(C)=O` [butanone], the “vapor or sublimation pressure” value was found to be 51.76 ± 0.63 kPa in data set [1] (332.65 K); 52.42 ± 0.63 kPa in data set [1] (333.65 K); 72.71 ± 0.7 kPa in data set [1] (342.63 K); 74.79 ± 0.7 kPa in data set [1] (343.55 K); 88.29 ± 0.79 kPa in data set [1] (348.55 K); 90.1 ± 0.79 kPa in data set [1] (349.06 K). Also, the refractive index in data set [2] was found to be 1.3791 ± 0.002.
For `CCCCCO` [pentan-1-ol], the “vapor or sublimation pressure” value in data set [1] (333.65 K) turned out to be 3.43 ± 0.62 kPa; in data set [1] (343.55 K) it was 5.9 ± 0.62 kPa; in data set [1] (348.55 K), 7.67 ± 0.62 kPa. Further, the refractive index in data set [2] was determined as 1.41 ± 0.002.
